Patent US20220168392A1 (priority 2019, published 2022)
Square brackets hold non-standard residues; d marks the D form. * marks the point of attachment. 2Nal = N[C@@H](Cc1ccc2ccccc2c1)C(=O)O; Propionyl = CCC(=O)*; Sar = CNCC(=O)O

Assays:
healthy rhesus monkeys = experiment: Maximum platelet count to baseline in healthy rhesus monkeys, escalating doses; type: in vivo, rhesus monkey; design: key to pharmacodynamics (PD) effect class of the dose (beneficial effects on survival): **: large pharmacodynamics (PD) effect; *: modest effect
Protocol: A pilot PK/PD study was performed to evaluate the efficacy of RWJ-800088 in rhesus monkeys (Study No. 2016-2693—CiToxLAB North America). Rhesus monkeys (n=10/group, 5 male/5 female) were treated with vehicle or RWJ-800088 (a single dose of 30 mg/kg RWJ-800088) administered 24 hours post TBI gamma radiation (600 cGY). […] The ratio of the maximum platelet count to baseline following escalating doses of RWJ-800088 to healthy rhesus monkeys is as follows: 0.97±0.06× at 0.5 mg/kg, 1.08±0.15× at 2 mg/kg, 1.98±0.16× at 10 mg/kg, 2.9±0.03× at 20 mg/kg, and 3.83±0.11× at 40 mg/kg).
(§1) The ratio of the maximum platelet counts to the baseline platelet counts following single escalating doses of RWJ-800088 to mice, rats, dogs, rhesus monkeys and human healthy volunteers is shown in Table 5. The dose required to achieve a 2-3.5-fold elevation in humans is ˜100-fold lower compared to mice, ˜1,000-fold lower compared to rats and >10,000-fold lower compared to canines and NHPs. […] The species differences in potency has been described for other TPO mimetics in the literature and is attributed to differences in receptor affinity (Erickson-Miller C L, et al. Discovery and characterization of a selective, nonpeptidyl thrombopoietin receptor agonist. Exp. Hematol. 2005; 33:85-93). […] It is discovered that the dose of RWJ-800088 that produces a survival benefit and protects against vascular and organ injury is the dose that produces a 2-4 fold elevation of platelets (Table 6).

Rat = experiment: Maximum platelet elevation relative to baseline in normal healthy rats, single escalating doses; type: in vivo; design: key to pharmacodynamics (PD) effect class of the dose (beneficial effects on survival): **: large pharmacodynamics (PD) effect; *: modest effect; conditions: for Rat Max Platelet Ratio: TOX6984
Description: as §1

healthy men = experiment: Study NAP1001: single IV dose in healthy men (platelet counts, safety); type: in vivo, human; design: key to pharmacodynamics (PD) effect class of the dose (beneficial effects on survival): **: large pharmacodynamics (PD) effect; *: modest effect; conditions: for Humans Max Platelet Ratio: NAP 1001
Protocol: In the FIH, single dose, Phase 1 clinical study NAP1001, 40 healthy men were enrolled, and 30 subjects received a single IV dose of RWJ-800088 as a 5-mg/mL solution in saline (dose range 0.375 to 3 μg/kg); 10 subjects received placebo. […] Thirty-three (83%) of 40 subjects reported at least 1 treatment-emergent adverse event throughout the study. Similar proportions of subjects reported treatment-emergent adverse events following administration of placebo (9 [90%] of 10 subjects) and RWJ-800088 (24 [80%] of 30 subjects). […] Mean platelet counts increased with increasing RWJ-800088 dose compared with placebo from Day 6 onwards, peaking at Days 10 to 12 before gradually returning to baseline by Day 21 (FIG. 19).
as §1

[1] = system: C3H/HeN male mice exposed to TBI; experiment: 30-day survival after TBI in C3H/HeN mice; type: in vivo, mouse; conditions: C3H/HeN M, 8.75 Gy, 3 mg/kg single dose, Pre −24 hr; for Survival treatment: 3 mg/kg
Description: Total Body Irradiation (TBI). Mice were irradiated bilaterally in the Cobalt-60 gamma-irradiation facility at the AFRRI. These animals were placed in well-ventilated plexiglass chambers made specifically for irradiating mice. An alanine/Electron Spin Resonance (ESR) dosimetry system (American Society for Testing and Material Standard E 1607) was used to measure the dose rates in the cores of acrylic phantoms (3 inches long and 1 inch in diameter) located in all empty slots of the exposure rack in the plexiglass chamber. ESR signals were measured with a calibration curve based on standard calibration dosimeters provided by the National Institute of Standard and Technology (NIST, Gaithersburg, Md.). The calibration curve was verified by inter-comparison with the National Physical Laboratory (NPL) in the United Kingdom. The corrections applied to the measured dose rates in phantoms were for decay of the Co-60 source and for a small difference in mass-energy absorption coefficients for water and soft tissue at the Co-60 energy level. Kaplan-Meier survival curves were plotted using GraphPad software; and trend in survival is compared between vehicle and drug-treated group.
The survival efficacy of RWJ-800088 was tested in C57BL/6 (another strain of mice with different radiation sensitivity compared to CD2F1) in males and females. […] All animals in saline treated groups (males and females) died whereas there was no mortality in RWJ-800088 treated groups 30 days post-TBI. […] All animals in saline treated groups died whereas there was 92% survival observed in the RWJ-800088 (24 h pre-TBI) treated group 30 days post-TBI.

[2] = system: female rats exposed to LD70 total body gamma radiation; experiment: Rat whole body irradiation study; type: in vivo
Protocol: FIGS. 16A-B show the percent survival in female SD Rats (n=8/group) administered RWJ-800088 (TPOm) at different time points and dose levels—FIG. 16A: 3000 μg/kg at 6, 24 and 48 hours post TBI (7.18 Gy), and FIG. 16B: 300 and 3000 μg/kg at 24 hours post TBI (7.18 Gy).
RWJ-800088 was administered at a 3000 μg/kg dose by SC injection to female rats (n=8) at 6, 24, or 48 hours and additionally 300 μg/kg dose at 24 hours after exposure to an LD70 total body dose of gamma radiation (Gammacell 3000 irradiator).

methoxypolyethyleneglycol20000-propionyl-L-Isoleucyl-L-Glutamyl-Glycyl-L-Prolyl-L-Threonyl-L-Leucyl-L-Arginyl-L-Glutaminyl-L-2-Naphthylalanyl-L-Leucyl-L-Alanyl-L-Alanyl-L-Arginyl-Sarcosyl-Ne-(methoxypolyethyleneglycol20000-propionyl-L-Isoleucyl-L-Glutamyl-Glycyl-L-Prolyl-L-Threonyl-L-Leucyl-L-Arginyl-L-Glutaminyl-L-2-Naphthylalanyl-L-Leucyl-L-Alanyl-L-Alanyl-L-Arginyl-Sarcosyl-)-Lysinamide ({mPEG 20 kDa-Propionyl}-IEGPTLRQ[2Nal]LAAR[Sar]K-NH2; also: dimer: second identical mPEG-propionyl chain on Lys Nε of C-terminal lysinamide) [RWJ-800088]
ratio of the maximum platelet count to baseline (healthy rhesus monkeys; 0.5 mg/kg): 0.97±0.06 × | ratio of the maximum platelet count to baseline (healthy rhesus monkeys; 2 mg/kg): 1.08±0.15 × | ratio of the maximum platelet count to baseline (healthy rhesus monkeys; 10 mg/kg): 1.98±0.16 × | ratio of the maximum platelet count to baseline (healthy rhesus monkeys; 20 mg/kg): 2.9±0.03 × | ratio of the maximum platelet count to baseline (healthy rhesus monkeys; 40 mg/kg): 3.83±0.11 × | NHP Max Platelet Ratio (healthy rhesus monkeys; CiToxLAB North America Study No. 2016-2693, dose 30000 μg/kg): 3.25 | Average of the Maximum Platelet Elevation/Baseline Platelet Counts (healthy rhesus monkeys; Monkey, dose 40000 μg/kg): 3.83 | pharmacodynamics (PD) effect class of the dose (beneficial effects on survival) (healthy rhesus monkeys; NHP, dose 30000 μg/kg): * | Dose for 2.0-4x Platelet Elevation in Healthy Subjects (healthy rhesus monkeys; Rhesus): ≥30 mg/kg | NHP Max Platelet Ratio (healthy rhesus monkeys; TOX9795/B201016-K013, dose 500 μg/kg): 0.9 ± 0.1 | NHP Max Platelet Ratio (healthy rhesus monkeys; TOX9795/B201016-K013, dose 2000 μg/kg): 1.1 ± 0.1 | NHP Max Platelet Ratio (healthy rhesus monkeys; TOX9795/B201016-K013, dose 10000 μg/kg): 2.9 ± 0.0 | NHP Max Platelet Ratio (healthy rhesus monkeys; TOX9795/B201016-K013, dose 40000 μg/kg): 3.8 ± 0.1 | Average of the Maximum Platelet Elevation/Baseline Platelet Counts (Rat; Rat, dose 3000 μg/kg): 3.1 | pharmacodynamics (PD) effect class of the dose (beneficial effects on survival) (Rat; Rat, dose 3000 μg/kg): ** | Dose for 2.0-4x Platelet Elevation in Healthy Subjects (Rat; Rats): ≥3 mg/kg | Rat Max Platelet Ratio (Rat; dose 100 μg/kg): 1.0 ± 0.2 | Rat Max Platelet Ratio (Rat; dose 300 μg/kg): 1.7 ± 0.3 | Rat Max Platelet Ratio (Rat; dose 3000 μg/kg): 3.2 ± 0.6 | subjects reporting treatment-emergent adverse events (healthy men; 24 of 30 subjects, single IV dose 0.375 to 3 μg/kg): 80% | Average of the Maximum Platelet Elevation/Baseline Platelet Counts (healthy men; Human, dose 3 μg/kg): 3.3 | Dose for 2.0-4x Platelet Elevation in Healthy Subjects (healthy men; Humans): ≥0.00225 mg/kg | pharmacodynamics (PD) effect class of the dose (beneficial effects on survival) (healthy men; Humans, dose 2.25 μg/kg): ** | pharmacodynamics (PD) effect class of the dose (beneficial effects on survival) (healthy men; Humans, dose 3 μg/kg): ** | Humans Max Platelet Ratio (healthy men; dose 0.375 μg/kg): 1.4 ± 0.3 | Humans Max Platelet Ratio (healthy men; dose 0.75 μg/kg): 1.8 ± 0.4 | Humans Max Platelet Ratio (healthy men; dose 1.5 μg/kg): 1.9 ± 0.7 | Humans Max Platelet Ratio (healthy men; dose 2.25 μg/kg): 2.1 ± 0.8 | Humans Max Platelet Ratio (healthy men; dose 3 μg/kg): 3.1 ± 1.1 | enhancement of platelets over background (healthy men; humans, 3 μg/kg (FIG. 19)): 3.5 fold | incidence of adverse events, dose relation (healthy men; single IV dose 0.375 to 3 μg/kg): not dose related | tolerability (healthy men; single IV doses up to and including 3 μg/kg, healthy men): well tolerated | Survival Differential (Treatment-Vehicle) [1]: 92% | Survival treatment [1]: 92% | Survival treatment ([1]; listed as TPOm): 92% | Effects ([2]; Rats, whole body irradiation, whole wrapped cell: Enhanced survival, mitigation against thrombocytopenia, anemia): Enhanced survival, | survival vs vehicle and RWJ-800088 at 48 hours post-irradiation ([2]; female rats, 3000 μg/kg SC at 6 and 24 hours post TBI (FIG. 16A)): significantly higher | survival, 3000 μg/kg compared with 300 μg/kg ([2]; female rats, 24 hours post irradiation (FIG. 16B)): substantially increased
